Experimental data reported in PMC8658016, “Identification of New Compounds with Anticonvulsant and Antinociceptive Properties in a Group of 3-substituted (2,5-dioxo-pyrrolidin-1-yl)(phenyl)-Acetamides” (International Journal of Molecular Sciences, 2021).
Like-named read-outs stand apart in the source and are kept apart here.

How the values were obtained:
[1] = system: TTX-sensitive Na+ channel; test: Radioligand binding, TTX-sensitive Na+ channel; conditions: rat cerebral cortex
[2] = Pharmacokinetic study in mice, serum and brain (LC-MS/MS); format: in vivo, mouse; conditions: for k el: non-compartmental analysis, read-out: λz (converted)
Experimental: The amount of the target compound in the serum and brain was determined by an LC-MS/MS system. […] The compound also very quickly penetrated to the murine brain and reached the maximum concentration in this organ at 15 min. However, the brain concentrations were lower than those in the serum. The compound was slowly eliminated from the body as its concentrations were still measurable up to 8 h. The terminal slope reflecting the elimination rate from the brain was similar to that observed in the serum. Male CD-1 mice weighting 28–33 g housed in conditions of the constant temperature with a 12:12 h light–dark cycle with free access to food and water were used in this study. The investigated compound was dissolved in sterile water for injection (Polpharma, Poland) and administered i.p. at a dose of 40 mg/kg. The mice were sacrificed by decapitation under isoflurane anesthesia. Blood samples were collected at 5, 15, 30, 60, 120, 240, and 480 min after dosing and brains were harvested at the same time points. Blood was allowed to clot at room temperature for 20 min and serum was separated by centrifugation at 3000 rpm for 10 min (Eppendorf MiniSpin centrifuge, Germany). The samples were stored at −80 °C until analysis. All animal procedures were approved by the First Ethical Committee on Animal Experimentation in Krakow, Poland (no. 270/2019). Concentrations of compound 14 in mouse brains and serum were measured by liquid chromatography tandem mass spectrometry (LC-MS/MS) method using SCIEX QTRAP 4500 triple quadrupole mass spectrometer coupled to Excion LC AC HPLC system (both from Danaher Corporation, Washington, DC, USA). Chromatographic separation was carried out on the Hypersil GoldTM C18 analytical column (2.1 × 50 mm, 3 µm, Thermo Scientific, USA) with the oven temperature set at 40 °C. […] The remaining time of elution was set at 95% B. The whole HPLC operation lasted 10 min. Electrospray ionization (ESI) in the positive ion mode was used for ion production. The tandem mass spectrometer was operated at unit resolution in the selected reaction monitoring mode (SRM), monitoring the transition of the protonated molecular ions m/z 489 to 132 (CE = 65 eV) and m/z 489 to 231 (CE = 29 eV) for compound 14 (first pair was used as a quantifier and the second for the identity verification qualifier) and m/z 436 to 235 (CE = 42 eV) for an internal standard (valsartan). The mass spectrometric conditions were optimized by continuous infusion of the standard solution at the rate of 7 μL/min using a Harvard infusion pump. The ion source temperature was maintained at 450 °C and the ion spray voltage was set at 5500 V. The curtain gas (CUR) was set at 40 psi and the collision gas (CAD) at medium. Data acquisition and processing were accomplished using the Analyst version 1.7 software. The calibration curves were constructed by plotting the ratio of the peak area of the studied compound to internal standard (IS) versus drug concentration and generated by weighted (1/x·x) linear regression analysis. The validated quantitation ranges for this method were within the expected concentration ranges, namely, from 0.1 to 20 µg/mL of serum and from 0.05 to 10 µg/g of brain tissue with accuracy from 93.73 to 104.29% and from 88.33 to 107% for serum and brain, respectively. No significant matrix effect was observed and there were no stability-related problems during the routine analysis of the samples. The brains were homogenized in distilled water at the ratio of 1:4 (w/v) with a tissue homogenizer LabGEN 125 (Cole-Parmer, Vernon Hills, IL, USA). […] Serum supernatant was additionally diluted 10 times with the deproteinization solution. Then, brain or serum supernatants were transferred into the autosampler vials. The autosampler temperature was maintained at 15 °C and a sample volume of 2 μL was injected into the LC-MS/MS system.

[3] = male, CD-1, mouse, ip, brain, mice, 40 mg/kg i.p.
[4] = male, CD-1, mouse, ip, serum, mice, 40 mg/kg i.p.

In the case of CN(C)C1CC(=O)N(C(C(=O)N2CCN(c3cccc(C(F)(F)F)c3)CC2)c2ccccc2)C1=O.Cl (centres unmarked) [Compound 14, 3-(Dimethylamino)-1-(2-oxo-1-phenyl-2-(4-(3-(trifluoromethyl)phenyl)-piperazin-1-yl)ethyl)pyrrolidine-2,5-dione hydrochloride], the “% Inhibition of Control-Specific Binding, TTX-sensitive Na+ channel” value ([1]; 10 µM) is reported as 31.0%, the “% Inhibition of Control-Specific Binding, TTX-sensitive Na+ channel” value ([1]; 50 µM) is reported as 90.3% and the “AUC0-∞” value ([2]; brain, mice, 40 mg/kg i.p.) is reported as 413.17 µg⋅min/mL(g). For the same compound, the Cmax ([2]; brain, mice, 40 mg/kg i.p.) was 5.32 µg/mL(g), the t0.5λz ([2]; brain, mice, 40 mg/kg i.p.) was 66.14 min and the Kp ([2]; male, CD-1, mouse, brain and serum, ip, mice, 40 mg/kg i.p., read-out: brain-to-serum AUC ratio) was at most 0.3. The concentration at 30 min ([2]; male, CD-1, mouse, brain, ip, 40 mg/kg, mice i.p., calculated for the free base, read-out: C30 min. in the brain) was 7.2 µM, the Cmax ([2]; male, CD-1, mouse, brain, ip, 40 mg/kg, mice i.p., calculated for the free base, read-out: Cmax in the brain) was 10.9 µM and the concentration at 30 min ([2]; male, CD-1, mouse, brain, ip, mice, 40 mg/kg i.p., read-out: brain level 30 min post-dose) was 3500 ± 990 ng/g. For the same compound, the MRT [2, 3] was 89.2 min, the Tmax [2, 3] was 15 min and the k el [2, 3] was 0.000183 s⁻¹. For the same compound, the CL/F [2, 4] was 27 mL/min/kg, the MRT [2, 4] was 93.5 min and the Tmax [2, 4] was 5 min. The k el [2, 4] was 0.000183 s⁻¹, the concentration at 30 min ([2]; male, CD-1, mouse, serum, ip, 40 mg/kg, mice i.p., calculated for the free base, read-out: C30 min. in serum) was 24.3 µM and the Cmax ([2]; male, CD-1, mouse, serum, ip, 40 mg/kg, mice i.p., calculated for the free base, read-out: Cmax in serum) was 41.1 µM. For the same compound, the “brain concentration 15 min after administration (highest)” value ([2]; mice, 40 mg/kg i.p.) was 5.32 ± 0.54 µg/g tissue, the “AUC0-∞” value ([2]; serum, mice, 40 mg/kg i.p.) was 1451.22 µg⋅min/mL(g) and the Cmax ([2]; serum, mice, 40 mg/kg i.p.) was 20.06 µg/mL(g). It also gave a V/F ([2]; serum, mice, 40 mg/kg i.p.) of 2.57 L/kg and a t0.5λz ([2]; serum, mice, 40 mg/kg i.p.) of 64.65 min.
